The values below come from patent US20080318949A1, “Pyrazolopyrimidinone Derivatives, Their Preparation And Their Use” (Topharman Shanghai Co., Ltd, priority 2005, published 2008).

pIC50: −log10 of the molar value.

For this experiment, the target named is T1, PDE5 from human platelets (Homo sapiens, UniProt O76074).
T1 construct: from tissue; host or cells: human platelets
Briefly: PDE5 inhibitory activity test (scintillation proximity assay). It is filed as biochemical. Conditions: PDE5 from human platelets. An excerpt:
The PDE5 and PDE3 were isolated form human platelets, while the PDE6 was isolated form bovine retinas. The enzyme inhibitory activity test conducted immediately after the enzymes had been isolated, using a scintillation proximity assay for the direct detection of AMP/GMP by the TRKQ7100 and TRKQ7090 kit. In summary, the effect of PDE inhibitors was investigated by assaying a fixed amount of enzyme in the presence of varying inhibitor concentrations and low substrate. The final assay volume was made up to 100 μl with 10 μl assay buffer (50 mM Tris/HCl PH 7.5, 8.3 mM MgCl2, 1.7 mM EGTA), and water. Reactions were initiated with enzyme, incubate for 30 minutes at 30° C. and terminated with 50 μl yttrium silicate SPA beads suspension containing zinc sulphate. Shook for 20 minutes and settled for 30 minutes in the dark, then counted on a BECKMAN LS6500 MULTI-PURPOSE SCINTILLATION COUNTER. The IC50 value for the compounds according the present invention was calculated according the counts.
According to the above-mentioned method, the inhibitory activities of some compounds of formula IA and IB according to the invention against PDE5 from human platelets were determined.
A general note: Scintillation proximity formats need no separation of bound from free tracer.
As a reminder, the pIC50 is −log10 of the IC50, conventionally taken in molar units. Molecule “1-methyl-5-{2-ethoxy-5-[bis(3-acetoxypropyl)amidosulfonyl]phenyl}-3-n-propyl-1,6-dihydro-7H-pyrazolo[4,3-d]pyrimidin-7-one [Example 108]” showed a negative logarithm of the IC50 (pIC50) of 7.76.

Regarding “1-methyl-5-{2-ethoxy-5-{[1-ethyl-1-[2-[1-ethyl-1-(2-hydroxyethoxyethyl)]amino]ethyl]amidosulfonyl}phenyl}-3-n-propyl-1,6-dihydro-7H-pyrazolo[4,3-d]pyrimidin-7-one [Example 20]”, the pIC50 was 9.30.

As for “1-methyl-5-{2-ethoxy-5-{[1-methyl-1-[2-[1-methyl-1-(2-hydroxyethyl)]amino]ethyl]amidosulfonyl}phenyl}-3-n-propyl-1,6-dihydro-7H-pyrazolo[4,3-d]pyrimidin-7-one [Example 21]”, the pIC50 was 9.03.

“1-methyl-5-{2-methoxyethoxy-5-[bis(2-hydroxyethyl)amidosulfonyl]phenyl}-3-n-propyl-1,6-dihydro-7H-pyrazolo[4,3-d]pyrimidin-7-one [Example 10]” had a pIC50 of 7.65.

In the case of “1-methyl-5-{2-propoxy-5-[[1-(2-hydroxyethoxyethyl)-1-(2-morpholin-1-yl)ethyl]amidosulfonyl]phenyl}-3-n-propyl-1,6-dihydro-7H-pyrazolo[4,3-d]pyrimidin-7-one [Example 104]”, the pIC50 was 7.88.

In turn, “1-methyl-5-{2-propoxy-5-[[1-(2-pyridylmethyl)-1-(2-piperidin-1-yl)ethyl]amidosulfonyl]phenyl}-3-n-propyl-1,6-dihydro-7H-pyrazolo[4,3-d]pyrimidin-7-one [Example 87]” showed a negative-log IC50 (pIC50) of 8.06.

In turn, “1-methyl-5-{2-propoxy-5-[[1-(3-ethoxyethyl)-1-(2-hydroxyethyl)]amidosulfonyl]phenyl}-3-n-propyl-1,6-dihydro-7H-pyrazolo[4,3-d]pyrimidin-7-one [Example 116]” showed a negative-log IC50 (pIC50) of 7.95.

As to “1-methyl-5-{2-propoxy-5-[[1-benzyl-1-(2-pyrrolidin-1-yl)ethyl]amidosulfonyl]phenyl}-3-n-propyl-1,6-dihydro-7H-pyrazolo[4,3-d]pyrimidin-7-one [Example 84]”, the negative logarithm of the IC50 (pIC50) was 7.93.

As to “1-methyl-5-{2-propoxy-5-[[1-ethyl-1-(2-acetoxyethyl)]amidosulfonyl]phenyl}-3-n-propyl-1,6-dihydro-7H-pyrazolo[4,3-d]pyrimidin-7-one [Example 94]”, the pIC50 was 8.27.

The molecule `CCOc1ccc(S(=O)(=O)N(CCOC(C)=O)CCOC(C)=O)cc1-c1nc2c(CC)nn(C)c2c(=O)[nH]1` [Example 6, 1-methyl-5-{2-ethoxy-5-[bis(2-acetoxyethyl)amidosulfonyl]phenyl}-3-ethyl-1,6-dihydro-7H-pyrazolo[4,3-d]pyrimidin-7-one] gave a negative-log IC50 (pIC50) of 9.13.

In turn, `CCOc1ccc(S(=O)(=O)N(CCOC(=O)c2cccnc2)CCOC(=O)c2cccnc2)cc1-c1nc2c(CC)nn(C)c2c(=O)[nH]1` [Example 7, 1-methyl-5-{2-ethoxy-5-[bis(2-nicotinoyloxyethyl)amidosulfonyl]phenyl}-3-ethyl-1,6-dihydro-7H-pyrazolo[4,3-d]pyrimidin-7-one] gave a pIC50 of 9.30.

For `CCOc1ccc(S(=O)(=O)N(CCO)CCO)cc1-c1nc2c(CC)nn(C)c2c(=O)[nH]1` [Example 8], the pIC50 was 8.67.

`CCCc1nn(C)c2c(=O)[nH]c(-c3cc(S(=O)(=O)N(CCOC(C)=O)CCOC(C)=O)ccc3OCCOC)nc12` [Example 9, 1-methyl-5-{2-methoxyethoxy-5-[bis(2-acetoxyethyl)amidosulfonyl]phenyl}-3-n-propyl-1,6-dihydro-7H-pyrazolo[4,3-d]pyrimidin-7-one] gave a pIC50 of 7.77.

In turn, `CCCc1nn(C)c2c(=O)[nH]c(-c3cc(S(=O)(=O)N(CCOC)CCN(CC)CC)ccc3OCC)nc12` [Example 11, 1-methyl-5-{2-ethoxy-5-[[1-(2-diethylaminoethyl)-1-(2-methoxyethyl)]amidosulfonyl]phenyl}-3-n-propyl-1,6-dihydro-7H-pyrazolo[4,3-d]pyrimidin-7-one] showed a negative-log IC50 (pIC50) of 7.42.
